Laboratory results reported in patent US10689383B2, “Optionally fused heterocyclyl-substituted derivatives of pyrimidine useful for the treatment of inflammatory, metabolic, oncologic and autoimmune diseases” (NUEVOLUTION A/S, priority 2014, dated 2020).

Experiments:
[1] = biological target: T1, human RORγt (Ligand Binding Domain) (Homo sapiens, UniProt P51449); assay: Fluorescence Polarization (FP) Assay; settings: Fluorescence Polarization (FP) Assay; values given as upper bounds of activity ranges; read-out: FP activity range
T1 construct: purchased Crelux (Planegg, Germany) batch no PC5032-1
T1 sequence (P51449 269-508 limits assumed): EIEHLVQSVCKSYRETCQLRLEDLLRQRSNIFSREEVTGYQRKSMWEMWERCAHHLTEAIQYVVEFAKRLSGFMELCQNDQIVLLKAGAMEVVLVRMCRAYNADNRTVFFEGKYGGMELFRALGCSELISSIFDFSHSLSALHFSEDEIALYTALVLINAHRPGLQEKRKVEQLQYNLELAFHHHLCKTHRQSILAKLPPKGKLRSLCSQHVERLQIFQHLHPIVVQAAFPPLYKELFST
Procedure, shortened: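 In vitro FP binding assay monitoring ligand binding within the ligand binding pocket. Probe is a TAMRA-labelled RORγt ligand (MW 910 g/mole); DMSO served as negative control.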

[2] = biological target: T2, yeast Gal4-DNA binding domain fused to the ligand binding domain of human RORγ (Homo sapiens, UniProt P51449); assay: RORγ Reporter Assay (Gal4); format: cell-based; settings: values given as lower bounds of ranges; for Gal4 activity range @ 1 μM (% inhibition): RORγ Reporter Assay (Gal4) at 1 μM; for Gal4 activity range @ 0.1 μM (% inhibition): RORγ Reporter Assay (Gal4) at 0.1 μM
T2 construct: host or cells: HEK293t
T2 sequence (P51449 269-508 limits assumed): T1 sequence (P51449 269-508 limits assumed)
Procedure, shortened: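 HEK293t reporter cells expressing the hybrid, with Gal4-UAS-driven firefly luciferase, treated in triplicate with compound at 1,000 nM and 100 nM (0.1% DMSO) in medium with 10% charcoal-stripped FBS for 24 h at 37 °C. Luminescence read; percent reduction of RLU calculated relative to vehicle.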

IC50 [1] [nM] | Gal4 activity range @ 1 μM (% inhibition) [2] [% inhibition] | Gal4 activity range @ 0.1 μM (% inhibition) [2] [% inhibition] | Compound
< 2000 | >50 |  | CC(C)(C)C[C@@H](Nc1ncnc(N2CCOCC2c2ccc(C(F)(F)F)cc2)c1F)C(N)=O (stereo partly drawn) [Example 20, (2R)-2-[[5-fluoro-6-[3-[4-(trifluoromethyl)phenyl]morpholin-4-yl]pyrimidin-4-yl]amino]-4,4-dimethyl-pentanamide]
< 500 | >80 | >50 | COC1(CNc2ncnc(N3CCCC3c3ccc(C(F)(F)F)cc3)c2F)CCOCC1 (centres unmarked) [Example 111, 5-fluoro-N-[(4-methoxytetrahydropyran-4-yl)methyl]-6-[2-[4-(trifluoromethyl)phenyl]pyrrolidin-1-yl]pyrimidin-4-amine]
< 500 | >80 | >20 | CC1(CNc2ncnc(N3CCC[C@@H]3c3ccc(C(F)(F)F)cc3)c2F)COC1 [Example 198, 5-fluoro-N-[(3-methyloxetan-3-yl)methyl]-6-[2-[4-(trifluoromethyl)phenyl]pyrrolidin-1-yl]pyrimidin-4-amine]
< 500 |  | >0 | OC1(CNc2ncnc(N3CCC[C@@H]3c3ccc(C(F)(F)F)cc3)c2F)CCSCC1 [Example 169, 4-[[[5-fluoro-6-[(2R)-2-[4-(trifluoromethyl)phenyl]pyrrolidin-1-yl]pyrimidin-4-yl]amino]methyl]tetrahydrothiopyran-4-o1]
< 10000 | >50 | >20 | NC(=O)Cc1ccc(CNc2ncnc(N3CCCCC3c3ccc(C(F)(F)F)cc3)c2F)cc1 (centres unmarked) [Example 308, 2-[4-[[[5-fluoro-6-[2-[4-(trifluoromethyl)phenyl]-1-piperidyl]pyrimidin-4-yl]amino]methyl]phenyl]acetamide]
< 500 |  | >50 | OC1(CNc2ncnc(N3CCCC3c3ccc(C(F)(F)F)cc3)c2F)CCOCC1 (centres unmarked) [Example 129, 4-[[[5-fluoro-6-[2-[4-(trifluoromethyl)phenyl]pyrrolidin-1-yl]pyrimidin-4-yl]amino]methyl]tetrahydropyran-4-ol]
< 500 | >80 | >50 | OCCC1(CNc2ncnc(N3CCC[C@@H]3c3ccc(C(F)(F)F)cc3)c2F)CCOCC1 [Example 221, 2-[4-[[[5-fluoro-6-[(2R)-2-[4-(trifluoromethyl)phenyl]pyrrolidin-1-yl]pyrimidin-4-yl]amino]methyl]tetrahydropyran-4-yl]ethanol]
< 500 |  | >50 | OCCc1ccc(CNc2ncnc(N3CCCC3c3ccc(C(F)(F)F)cc3)c2F)cc1 (centres unmarked) [Example 128, 2-[4-[[[5-fluoro-6-[2-[4-(trifluoromethyl)phenyl]pyrrolidin-1-yl]pyrimidin-4-yl]amino]methyl]phenyl]ethanol]
< 500 |  | >0 | CC1(CNc2ncnc(N3CCCC3c3ccc(C(F)(F)F)cc3)c2F)CCC1 (centres unmarked) [Example 152, 5-fluoro-N-[(1-methylcyclobutyl)methyl]-6-[2-[4-(trifluoromethyl)phenyl]pyrrolidin-1-yl]pyrimidin-4-amine]
< 1000 | >50 |  | COc1cccc(CNc2ncnc(N3CCCC3c3ccc(C(F)(F)F)cc3)c2F)c1OC (centres unmarked) [Example 54, N-[(2,3-dimethoxyphenyl)methyl]-5-fluoro-6-[2-[4-(trifluoromethyl)phenyl]pyrrolidin-1-yl]pyrimidin-4-amine]
< 500 | >80 | >50 | CS(=O)(=O)N1CCC(Cn2ccc3c(N4CCOC[C@@H]4c4ccc(OC(F)(F)F)cc4)ncnc32)CC1 [Example 290, (3S)-4-[7-[(1-methylsulfonyl-4-piperidyl)methyl]pyrrolo[2,3-d]pyrimidin-4-yl]-3-[4-(trifluoromethoxy)phenyl] morpholine]
< 1000 | >80 | >20 | OCC1(CNc2ncnc(N3CC(F)(F)CC3c3ccc(C(F)(F)F)cc3)c2F)COC1 (centres unmarked) [Example 261, [3-[[[6-[4,4-difluoro-2-[4-(trifluoromethyl)phenyl]pyrrolidin-1-yl]-5-fluoro-pyrimidin-4-yl]amino]methyl]oxetan-3-yl]methanol]
< 2000 | >20 |  | CC(C)(C)C[C@@H](Nc1ncnc(N2CCCC2c2ccc(C(F)(F)F)cc2)c1F)C1CNCCO1 (stereo partly drawn) [Example 64, N-[(1R)-3,3-dimethyl-1-morpholin-2-yl-butyl]-5-fluoro-6-[2-[4-(trifluoromethyl)phenyl]pyrrolidin-1-yl]pyrimidin-4-amine]
< 10000 | >80 | >20 | Fc1c(NCC2CCOCC2)ncnc1N1CCOC[C@@H]1c1ccc(C(F)(F)F)cc1 [Example 247, 5-fluoro-N-(tetrahydropyran-4-ylmethyl)-6-[(3S)-3-[4-(trifluoromethyl)phenyl]morpholin-4-yl]pyrimidin-4-amine]
< 1000 | >50 | >20 | CC(=O)N1CCC(F)(CNc2ncnc(N3CCOC[C@@H]3c3ccc(C(F)(F)F)cc3)c2F)CC1 [Example 262, 1-[4-fluoro-4-[[[5-fluoro-6-[(3S)-3-[4-(trifluoromethyl)phenyl]morpholin-4-yl]pyrimidin-4-yl]amino]methyl]-1-piperidyl]ethanone]
< 500 |  | >50 | NS(=O)(=O)c1ccc(CNc2ncnc(N3CCC[C@@H]3c3ccc(C(F)(F)F)cc3)c2F)cc1 [Example 182, 4-[[[5-fluoro-6-[(2R)-2-[4-(trifluoromethyl)phenyl]pyrrolidin-1-yl]pyrimidin-4-yl]amino]methyl]benzenesulfonamide]
< 500 | >80 | >50 | CS(=O)(=O)N1CCC(CNc2ncnc(N3CCCC3c3ccc(C(F)(F)F)cc3O)c2F)CC1 (centres unmarked) [Example 324, 2-[1-[5-fluoro-6-[(1-methylsulfonyl-4-piperidyl)methylamino]pyrimidin-4-yl]pyrrolidin-2-yl]-5-(trifluoromethyl)phenol]
< 2000 | >20 |  | CC(C)(C)C[C@@H](Nc1ncnc(N2CCCC2c2ccc(C(F)(F)F)cn2)c1F)C(N)=O (stereo partly drawn) [Example 42, (2R)-2-[[5-fluoro-6-[2-[5-(trifluoromethyl)-2-pyridyl]pyrrolidin-1-yl]pyrimidin-4-yl]amino]-4,4-dimethyl-pentanamide]
< 500 | >80 | >20 | CC(=O)N1CCC(CNc2ncnc(N3CCOC[C@@H]3c3ccc(C(F)(F)F)cc3)c2F)CC1 [Example 233, 1-[4-[[[5-fluoro-6-[(3S)-3-[4-(trifluoromethyl)phenyl]morpholin-4-yl]pyrimidin-4-yl]amino]methyl]-1-piperidyl]ethanone]
< 2000 | >50 | >20 | CS(=O)(=O)N1CCC(CNc2ncnc(N3CCOCC3c3ccccc3)c2F)CC1 (centres unmarked) [Example 274, 5-fluoro-N-[(1-methylsulfonyl-4-piperidyl)methyl]-6-(3-phenylmorpholin-4-yl)pyrimidin-4-amine]
< 2000 | >80 | >20 | O=S1(=O)CCC(CNc2ncnc(N3CCC[C@@H]3c3ccc(C(F)(F)F)cc3)c2F)CC1 [Example 222, N-[(1,1-dioxothian-4-yl)methyl]-5-fluoro-6-[(2R)-2-[4-(trifluoromethyl)phenyl]pyrrolidin-1-yl]pyrimidin-4-amine]
< 500 |  | >0 | Fc1c(NCC2CCCOC2)ncnc1N1CCC[C@@H]1c1ccc(C(F)(F)F)cc1 (stereo partly drawn) [Example 186, 5-fluoro-N-(tetrahydropyran-3-ylmethyl)-6-[(2R)-2-[4-(trifluoromethyl)phenyl]pyrrolidin-1-yl]pyrimidin-4-amine]
< 500 | >80 | >50 | COC(=O)C1(CNc2ncnc(N3CCOCC3c3ccc(C(F)(F)F)cc3)c2F)CCOCC1 (centres unmarked) [Example 254, methyl 4-[[[5-fluoro-6-[3-[4-(trifluoromethyl)phenyl]morpholin-4-yl]pyrimidin-4-yl]amino]methyl]tetrahydropyran-4-carboxylate]
